The record followed here is US10287305B2, “Substituted piperidine compound and use thereof” (Takeda Pharmaceutical Company Limited, priority 2016, dated 2019).

Structures are written as SMILES.

In this assay the target is human orexin type 2 receptor (hOX2R) (Homo sapiens (Human), UniProt O43614). Description: Measurement of orexin type 2 receptor agonist activity (Experimental Example 2-1, FLIPR TETRA, intracellular Ca2+). It counts as cell-based. The following applies: CHO dhfr- cells expressing hOX2R; for Emax at 30 µM: value at 30 uM concentration, orexin B as full agonist = 100%; for Emax: read-out: Emax (%).
human orexin type 2 receptor (hOX2R), sequence (O43614 whole entry): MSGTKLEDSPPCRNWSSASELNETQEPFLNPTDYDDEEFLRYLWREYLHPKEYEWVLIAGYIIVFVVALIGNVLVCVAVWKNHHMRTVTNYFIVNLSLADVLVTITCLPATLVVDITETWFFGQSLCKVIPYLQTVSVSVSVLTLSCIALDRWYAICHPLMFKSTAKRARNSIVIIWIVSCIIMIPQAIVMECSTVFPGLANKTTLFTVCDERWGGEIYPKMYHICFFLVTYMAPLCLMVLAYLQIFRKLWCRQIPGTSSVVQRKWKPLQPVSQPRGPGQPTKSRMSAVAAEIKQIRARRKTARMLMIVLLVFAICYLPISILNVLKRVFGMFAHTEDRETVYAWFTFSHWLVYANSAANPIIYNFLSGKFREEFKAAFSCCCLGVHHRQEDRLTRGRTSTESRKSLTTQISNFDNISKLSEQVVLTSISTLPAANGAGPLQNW

[1] abbreviates: agonist activity, 10 nM human orexin B = 100%.

As usually defined, the EC50 is the concentration at which the effect is half-maximal. Read a low EC50 as a more potent agent. The Emax is the greatest response seen or fitted, relative to the assay's reference. Consider `CC(=O)N1CCC[C@H](NS(=O)(=O)C(C)C)[C@@H]1CO[C@H]1CC[C@@H](C(C)C)CC1` (relative stereo) [Example 76, N-(cis-1-acetyl-2-(((cis-4-isopropylcyclohexyl)oxy)methyl)piperidin-3-yl)propane-2-sulfonamide], for which the Emax at 30 µM came out at 103%. The molecule also returned an EC50 under setting [1] of 300 nM.

For the molecule `CCNC(=O)N1CCC[C@H](NS(C)(=O)=O)[C@@H]1CO[C@H]1CC[C@@H](c2ccccc2OC(F)(F)F)CC1` (relative stereo) [Example 295, cis-N-ethyl-3-((methylsulfonyl)amino)-2-(((cis-4-(2-(trifluoromethoxy)phenyl)cyclohexyl)oxy)methyl)piperidine-1-carboxamide], under “FLIPR TETRA, Fluo-4AM”, the EC50 is 4.2 nM and the maximal effect (Emax) amounted to 93%.

Consider `CC(C)OC(=O)N1CCC[C@H](NS(=O)(=O)N(C)C)[C@@H]1COC1CCN(c2ncccn2)CC1` [Example 29, isopropyl (2R,3S)-3-((dimethylsulfamoyl)amino)-2-(((1-(pyrimidin-2-yl)piperidin-4-yl)oxy)methyl)piperidine-1-carboxylate], for which the maximum response (Emax) at 30 µM stood at 104%. Also, the EC50 under setting [1] is 17 nM.

For `CC(C)OC(=O)N1CCC[C@H](NS(C)(=O)=O)[C@@H]1COC1CCN(c2ncccn2)CC1` (relative stereo) [Example 255, isopropyl cis-3-((methylsulfonyl)amino)-2-(((1-(pyrimidin-2-yl)piperidin-4-yl)oxy)methyl)piperidine-1-carboxylate], for the setting “FLIPR TETRA, Fluo-4AM”, the 50% effective concentration (EC50) worked out at 8.1 nM and the Emax was determined as 102%.

With `CS(=O)(=O)N[C@H]1CCCN(C(=O)Cn2cccn2)[C@H]1CO[C@H]1CC[C@@H](c2ccccc2)CC1` (relative stereo) [Example 138, N-(cis-2-(((cis-4-phenylcyclohexyl)oxy)methyl)-1-(1H-pyrazol-1-ylacetyl)piperidin-3-yl)methanesulfonamide], for the setting “FLIPR TETRA, Fluo-4AM”, the response was half-maximal at 22 nM (EC50) and the maximal effect (Emax) is 94%.

In the case of `COC(=O)N1CCC[C@H](NS(C)(=O)=O)[C@@H]1CO[C@H]1CC[C@@H](c2ccccc2C(F)F)CC1` (relative stereo) [Example 322, methyl cis-2-(((cis-4-(2-(difluoromethyl)phenyl)cyclohexyl)-oxy)methyl)-3-((methylsulfonyl)amino)piperidine-1-carboxylate], the “Emax (%)” value (FLIPR TETRA, Fluo-4AM) is given as 71%.

For the molecule `CC(=O)N1CCC[C@H](NS(C)(=O)=O)[C@@H]1CO[C@H]1CC[C@@H](c2cccc(C#N)c2)CC1` (relative stereo) [Example 252, N-(cis-1-acetyl-2-(((cis-4-(3-cyanophenyl)cyclohexyl)oxy)methyl)piperidin-3-yl)methanesulfonamide], for the setting “FLIPR TETRA, Fluo-4AM”, the response was half-maximal at 2900 nM (EC50) and the Emax was found to be 93%.

The molecule `CC(C)[C@H]1CC[C@@H](OC[C@H]2[C@@H](NS(C)(=O)=O)CCCN2S(=O)(=O)c2cnn(C)c2)CC1` (relative stereo) [Example 67, N-(cis-2-(((cis-4-isopropylcyclohexyl)oxy)methyl)-1-((1-methyl-1H-pyrazol-4-yl)sulfonyl)piperidin-3-yl)methanesulfonamide] returned a maximal response (Emax) at 30 µM of 93%.

Take `CS(=O)(=O)N[C@H]1CCCN[C@H]1CO[C@H]1CC[C@@H](c2ccccc2C(F)(F)F)CC1` [Example 23, N-((2R,3S)-2-(((cis-4-(2-(trifluoromethyl)phenyl)cyclohexyl)oxy)methyl)piperidin-3-yl)methanesulfonamide]: the Emax at 30 µM is 90%. Under setting [1], the EC50 was found to be 1200 nM.

In turn, `CCNC(=O)N1CCC[C@H](NS(C)(=O)=O)[C@@H]1CO[C@H]1CC[C@@H](c2ccccc2F)CC1` (relative stereo) [Example 117, cis-N-ethyl-2-(((cis-4-(2-fluorophenyl)cyclohexyl)oxy)-methyl)-3-((methylsulfonyl)amino)piperidine-1-carboxamide] registered an Emax at 30 µM of 91%. Moreover, the midpoint of the response under setting [1], the EC50, lay at 0.12 nM.

Regarding `CCNC(=O)N1CCC[C@H](NS(C)(=O)=O)[C@@H]1CO[C@H]1C[C@@H](c2ccccc2)C1` (relative stereo) [Example 113, cis-N-ethyl-3-((methylsulfonyl)amino)-2-(((cis-3-phenylcyclobutyl)oxy)methyl)piperidine-1-carboxamide], the maximum response (Emax) at 30 µM worked out at 93%. Under setting [1], it took 59 nM to reach a half-maximal effect (EC50).

As to `CCNC(=O)N1CCC[C@H](NS(C)(=O)=O)[C@@H]1CO[C@H]1CC[C@@H](C)CC1` (relative stereo) [Example 129, cis-N-ethyl-2-(((cis-4-methylcyclohexyl)oxy)methyl)-3-((methylsulfonyl)amino)piperidine-1-carboxamide], for the setting “FLIPR TETRA, Fluo-4AM”, the EC50 was 39 nM and the maximal response (Emax) turned out to be 96%.

`CS(=O)(=O)N[C@H]1CCCN[C@H]1CO[C@H]1CC[C@@H](c2ccccc2C(F)F)CC1` [Example 320, N-((2R,3S)-2-(((cis-4-(2-(difluoromethyl)phenyl)cyclohexyl)-oxy)methyl)piperidin-3-yl)methanesulfonamide]: where the note is “FLIPR TETRA, Fluo-4AM”, the EC50 came out at 2000 nM and the maximal effect (Emax) came out at 74%.

`CS(=O)(=O)N[C@H]1CCCN(C(=O)C2CC2)[C@H]1COC1CCN(c2ncc(F)cn2)CC1` (relative stereo) [Example 202, N-(cis-1-(cyclopropylcarbonyl)-2-(((1-(5-fluoropyrimidin-2-yl)piperidin-4-yl)oxy)methyl)piperidin-3-yl)methanesulfonamide]: under “FLIPR TETRA, Fluo-4AM”, it took 19 nM to reach a half-maximal effect (EC50) and the maximum response (Emax) was 97%.

Take `CS(=O)(=O)N[C@H]1CCCN(C(=O)C2CC2)[C@H]1COC1CCN(c2cc(F)ccc2Cl)CC1` (relative stereo) [Example 212, N-(cis-2-(((1-(2-chloro-5-fluorophenyl)piperidin-4-yl)oxy)methyl)-1-(cyclopropylcarbonyl)piperidin-3-yl)methanesulfonamide]: where the note is “FLIPR TETRA, Fluo-4AM”, the EC50 is 2200 nM and the maximal response (Emax) was 89%.

For the molecule `CCOC(=O)N1CCC[C@H](NS(C)(=O)=O)[C@@H]1CO[C@H]1CC[C@@H](C(C)C)CC1` (relative stereo) [Example 42, ethyl cis-2-(((cis-4-isopropylcyclohexyl)oxy)methyl)-3-((methylsulfonyl)amino)piperidine-1-carboxylate], the maximal effect (Emax) at 30 µM was 97%.

Turning to `C[C@H](O)C(=O)N1CCC[C@H](NS(C)(=O)=O)[C@@H]1CO[C@H]1CC[C@@H](c2ccccc2)CC1` [Example 188, N-((2R,3S)-1-((2S)-2-hydroxypropanoyl)-2-(((cis-4-phenylcyclohexyl)oxy)methyl)piperidin-3-yl)methanesulfonamide], for the setting “FLIPR TETRA, Fluo-4AM”, the response was half-maximal at 23 nM (EC50) and the maximal response (Emax) was determined as 97%.

`CS(=O)(=O)N[C@H]1CCCN(C(=O)C2CC2)[C@H]1CO[C@H]1CC[C@@H](c2c(F)ccc(F)c2F)CC1` [Example 258, N-((2R,3S)-1-(cyclopropylcarbonyl)-2-(((cis-4-(2,3,6-trifluorophenyl)cyclohexyl)oxy)methyl)piperidin-3-yl)methanesulfonamide]: under “FLIPR TETRA, Fluo-4AM”, the concentration giving a half-maximal response (EC50) is 0.72 nM and the Emax is 101%.

For `COC(=O)N1CCC[C@H](NS(C)(=O)=O)[C@@H]1CO[C@H]1CC[C@@H](c2cc(F)cc(F)c2)CC1` [Example 241, methyl (2R,3S)-2-(((cis-4-(3,5-difluorophenyl)cyclohexyl)oxy)methyl)-3-((methylsulfonyl)amino)piperidine-1-carboxylate], where the note is “FLIPR TETRA, Fluo-4AM”, a half-maximal effect (EC50) was put at 1.2 nM and the Emax worked out at 97%.

On to `CC(=O)N1CCC[C@H](NS(C)(=O)=O)[C@@H]1CO[C@H]1CC[C@@H](c2c(F)cccc2F)CC1` [Example 14, N-((2R,3S)-1-acetyl-2-(((cis-4-(2,6-difluorophenyl)cyclohexyl)oxy)methyl)piperidin-3-yl)methanesulfonamide], for which the maximal response (Emax) at 30 µM is 105%. The same molecule showed an EC50 under setting [1] of 6.6 nM.

Take `CS(=O)(=O)N[C@H]1CCCN(C(=O)CC2CC2)[C@H]1CO[C@H]1C[C@@H](c2ccccc2)C1` (relative stereo) [Example 308, N-(cis-1-(cyclopropylacetyl)-2-(((cis-3-phenylcyclobutyl)oxy)methyl)-piperidin-3-yl)methanesulfonamide]: where the note is “FLIPR TETRA, Fluo-4AM”, a half-maximal response (EC50) required 590 nM and the Emax was determined as 109%.

As to `CS(=O)(=O)N[C@H]1CCCN(C(=O)OCC(F)(F)F)[C@H]1COC1CCN(c2ncccn2)CC1` [Example 305, 2,2,2-trifluoroethyl (2R,3S)-3-((methylsulfonyl)amino)-2-(((1-(pyrimidin-2-yl)piperidin-4-yl)oxy)methyl)piperidine-1-carboxylate], for the setting “FLIPR TETRA, Fluo-4AM”, it took 53 nM to reach a half-maximal effect (EC50) and the “Emax (%)” value is recorded as 106%.

In turn, `CC(C)NC(=O)N1CCC[C@H](NS(C)(=O)=O)[C@@H]1CO[C@H]1CC[C@@H](C(C)C)CC1` (relative stereo) [Example 101, cis-N-isopropyl-2-(((cis-4-isopropylcyclohexyl)oxy)methyl)-3-((methylsulfonyl)amino)piperidine-1-carboxamide] had a maximal response (Emax) at 30 µM of 115%. The molecule also gave a concentration giving a half-maximal response (EC50) under setting [1] of 2.3 nM.

Consider `COC(=O)N1CCC[C@H](NS(C)(=O)=O)[C@@H]1COC1CCN(c2ccccc2Cl)CC1` (relative stereo) [Example 167, methyl cis-2-(((1-(2-chlorophenyl)piperidin-4-yl)oxy)methyl)-3-((methylsulfonyl)amino)piperidine-1-carboxylate], for which, under “FLIPR TETRA, Fluo-4AM”, the response was half-maximal at 2400 nM (EC50) and the maximal effect (Emax) stood at 83%.

For the molecule `CC(C)[C@H]1CC[C@@H](OC[C@H]2[C@@H](NS(C)(=O)=O)CCCN2C(=O)NCC(F)(F)F)CC1` (relative stereo) [Example 98, cis-2-(((cis-4-isopropylcyclohexyl)oxy)methyl)-3-((methylsulfonyl)amino)-N-(2,2,2-trifluoroethyl)piperidine-1-carboxamide], the maximum response (Emax) at 30 µM is 107%.

Regarding `CC(C)OC(=O)N1CCC[C@H](NS(C)(=O)=O)[C@@H]1CO[C@@H]1CCN(c2ncccn2)C[C@H]1F` (relative stereo) [Example 341, isopropyl cis-2-(((trans-3-fluoro-1-(pyrimidin-2-yl)piperidin-4-yl)oxy)methyl)-3-((methylsulfonyl)amino)piperidine-1-carboxylate], where the note is “FLIPR TETRA, Fluo-4AM”, the concentration for a half-maximal effect (EC50) stood at 13 nM and the maximum response (Emax) is 103%.
